Laboratory results published in ChEMBL document CHEMBL1125198, “Synthesis, ligand binding, QSAR, and CoMFA study of 3 beta-(p-substituted phenyl)tropane-2 beta-carboxylic acid methyl esters” (J Med Chem, 1991).

target: Sodium-dependent dopamine transporter (Rattus norvegicus, UniProt P23977); assay: Affinity against cocaine binding site of dopamine transporter in rat striatum using [3H]2b as radioligand.; assay type: tissue-based
Sequence (P23977 whole entry): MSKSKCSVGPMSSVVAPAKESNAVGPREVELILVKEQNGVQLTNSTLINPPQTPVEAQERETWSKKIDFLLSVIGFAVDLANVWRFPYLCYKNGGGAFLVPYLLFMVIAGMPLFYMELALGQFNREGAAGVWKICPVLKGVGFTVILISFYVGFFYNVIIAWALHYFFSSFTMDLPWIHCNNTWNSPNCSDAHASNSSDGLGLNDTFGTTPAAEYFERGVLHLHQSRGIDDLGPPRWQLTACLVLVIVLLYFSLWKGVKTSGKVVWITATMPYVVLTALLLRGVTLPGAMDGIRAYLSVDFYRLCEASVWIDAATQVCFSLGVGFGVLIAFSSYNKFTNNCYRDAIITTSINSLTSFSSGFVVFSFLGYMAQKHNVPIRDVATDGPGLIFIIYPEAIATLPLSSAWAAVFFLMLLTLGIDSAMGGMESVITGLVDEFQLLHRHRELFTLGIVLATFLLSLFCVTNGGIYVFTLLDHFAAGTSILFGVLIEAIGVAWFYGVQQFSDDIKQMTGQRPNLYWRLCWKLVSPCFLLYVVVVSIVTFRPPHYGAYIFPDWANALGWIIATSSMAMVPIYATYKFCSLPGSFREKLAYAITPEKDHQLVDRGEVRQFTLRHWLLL

First: COC(=O)[C@@H]1C2CC[C@H](C[C@@H]1c1ccccc1)N2C
Second: COC(=O)C1C2CC[C@H](C[C@H]1c1ccc(Br)cc1)N2C (some centres not stated)
The IC50 of the first is 13-fold higher: 0.023 µM for the first, 0.00181 µM for the second. The second is the more potent here.

First: CCOC(=O)Nc1ccc([C@H]2C[C@H]3CCC([C@H]2C(=O)OC)N3C)cc1
Second: CCC(=O)Nc1ccc([C@H]2C[C@H]3CCC([C@H]2C(=O)OC)N3C)cc1
The IC50 of the first is 4.6-fold higher: 0.316 µM for the first, 0.068 µM for the second.

Compared with COC(=O)[C@@H]1C2CC[C@H](C[C@@H]1c1ccc(N=[N+]=[N-])cc1)N2C, COC(=O)[C@@H]1C2CC[C@H](C[C@@H]1c1ccc(N)cc1)N2C is 12-fold higher in IC50: 0.00212 µM for the first, 0.0248 µM for the second. The first is the more potent here.

COC(=O)C1C2CC[C@H](C[C@@H]1c1ccc(I)cc1)N2C (some centres not stated) and COC(=O)C1C2CC[C@H](C[C@@H]1c1ccc(Cl)cc1)N2C (some centres not stated) are within 1.5-fold of each other in IC50: 0.00126 µM for the first, 0.00117 µM for the second.

Compared with COC(=O)[C@@H]1C2CC[C@H](C[C@@H]1c1ccc(C(F)(F)F)cc1)N2C, COC(=O)C1C2CC[C@H](C[C@H]1c1ccc(C)cc1)N2C (some centres not stated) is 7.7-fold lower in IC50: 0.0131 µM for the first, 0.00171 µM for the second. The second is the more potent here.

Compared with COC(=O)[C@@H]1C2CC[C@H](C[C@@H]1c1cccs1)N2C, COC(=O)[C@@H]1C2CC[C@H](C[C@@H]1c1ccc(NC(C)=O)cc1)N2C is 4-fold lower in IC50: 0.257 µM for the first, 0.0642 µM for the second. The second is the more potent here.
